Assays:
[1] = Gross macroscopic examination and weighing of major organs at 24 h after dosing; assay type: in vivo, Male CD-1 (ICR) mice
Method: (§1) MCF-013 was formulated as a clear solution by dissolving in 10% final volume ethanol and then making up to full volume with saline at concentrations of 0.1, 0.3, 1 and 4 mg provided material/mL. This provided doses of 1, 3, 10 and 40 mg provided material/kg when administered intraperitoneally in 10 ml/kg dosing volumes.
(§2) Male CD-1 (ICR) mice were acclimatised to the procedure room. Groups of 3 mice were administered with vehicle (ethanol:saline) [10:90], or MCF-013 at 1, 3, 10 or 40 mg/kg intraperitoneally in 10 mL/kg dosing volumes. Doses were administered in an escalating dose order. […] These tissues were then excised and weighed and any with overt macroscopic abnormalities were to be placed in 10 volumes neutral buffered formalin solution (Sigma Cat no: HT501128).

[2] = Modified Irwin procedure: overt behavioural and physiological parameters after a single intraperitoneal dose; assay type: in vivo, Male CD-1 (ICR) mice; conditions: for behavioural or physiological changes (modified Irwin): single dose, 3 mice, assessed 0.25-24 h
Method: as §1, §2

O=C(Nc1ccccc1OCCOc1ccc(O)c(O)c1OC[C@H]1O[C@@H](O)[C@H](O)[C@@H](O)[C@@H]1O)c1cccc(O)c1O [MCF-013, N-{o-[2-(2-{[(2R,3S,4S,5R,6R)-3,4,5,6-Tetrahydroxytetrahydro-2Hpyran-2-yl]methoxy}-3,4-dihydroxyphenoxy)ethoxy]phenyl}2,3-dihydroxybenzamide]
gross macroscopic examination of the major organs ([1]; 1 mg/kg intraperitoneally): caecum of mouse 6 was noted to be slightly distended with air
organ weights ([1]; 1 mg/kg intraperitoneally): normal
gross macroscopic examination of the major organs ([1]; 3 mg/kg intraperitoneally): no abnormalities
organ weights ([1]; 3 mg/kg intraperitoneally): normal
gross macroscopic examination of the major organs ([1]; 10 mg/kg intraperitoneally): no abnormalities
organ weights ([1]; 10 mg/kg intraperitoneally): normal
gross macroscopic examination of the major organs ([1]; 40 mg/kg intraperitoneally): no abnormalities
organ weights ([1]; 40 mg/kg intraperitoneally): normal
behavioural or physiological changes (modified Irwin) ([2]; 1 mg/kg intraperitoneally): One of three mice (No. 6) showed slight hunched posture at 0.5 and 1h, and slight piloerection 0.5 h after dosing
behavioural or physiological changes (modified Irwin) ([2]; 3 mg/kg intraperitoneally): One of three animals (mouse 9) showed slight hunched posture at 0.25 h after dosing
behavioural or physiological changes (modified Irwin) ([2]; 10 mg/kg intraperitoneally): no behavioural or physiological changes were noted
behavioural or physiological changes (modified Irwin) ([2]; 40 mg/kg intraperitoneally): no behavioural or physiological changes were noted
tolerability over a 24 h period ([2]; 1, 3, 10 and 40 mg provided material/kg intraperitoneally, mice, compared with ethanol:saline [10:90] vehicle): well tolerated
